Results as given in patent US8431593B2, “Heteroaryl amide derivatives” (H. Lundbeck A/S, priority 2006, dated 2013).
Read-outs that look alike come from different tables or passages of the source. Values belong to the molecule of their own block, whether it stands above or below them.

Target: T1, P2X7 receptor (Homo sapiens, UniProt Q99572)
T1 construct: host or cells: SH-SY5Y
T1 sequence (Q99572 1-595): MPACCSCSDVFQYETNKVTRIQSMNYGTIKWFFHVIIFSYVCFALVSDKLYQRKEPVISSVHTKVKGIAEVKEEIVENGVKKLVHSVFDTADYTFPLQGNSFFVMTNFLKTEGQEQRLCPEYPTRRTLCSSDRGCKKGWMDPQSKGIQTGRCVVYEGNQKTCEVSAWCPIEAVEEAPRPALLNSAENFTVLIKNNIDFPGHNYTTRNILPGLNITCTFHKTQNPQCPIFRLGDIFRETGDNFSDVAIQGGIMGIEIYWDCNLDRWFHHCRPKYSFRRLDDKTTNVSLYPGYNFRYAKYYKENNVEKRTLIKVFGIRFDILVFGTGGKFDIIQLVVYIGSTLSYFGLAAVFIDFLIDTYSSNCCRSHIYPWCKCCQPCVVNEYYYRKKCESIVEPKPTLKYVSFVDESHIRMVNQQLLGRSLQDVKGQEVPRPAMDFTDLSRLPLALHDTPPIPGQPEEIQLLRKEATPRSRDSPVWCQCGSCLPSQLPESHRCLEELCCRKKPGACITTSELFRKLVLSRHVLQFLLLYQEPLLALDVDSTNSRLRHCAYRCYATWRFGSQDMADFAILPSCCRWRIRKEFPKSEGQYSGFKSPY
Assay: P2X7 calcium mobilization assay, high throughput, antagonist activity (Example 4A)
Type: cell-based
How it was run: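 Antagonism was measured as calcium fluorescence (FLIPR Tetra) in cells seeded one day earlier at 100,000/well, loaded with dye for 1 h and exposed to compound for 1 h at room temperature before agonist. Peak RFU, minus the no-agonist background, was referenced to the mean of the agonist wells.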

[1] = SH-SY5Y cells, 50% decrease in fluorescence response to 80 μM BzATP, read-out: IC50
[2] = 50% decrease in the fluorescence response of cells exposed to 80 μM 2′(3′)-O-(4-benzoyl-benzoyl)adenosine 5′-triphosphate, Example 4A, read-out: IC50
[3] = 50% decrease in the fluorescence response of cells exposed to 80 μM of 2′(3′)-O-(4-benzoyl-benzoyl)adenosine 5′-triphosphate, determined as in Example 4A, read-out: IC50
[4] = 50% decrease in the fluorescence response of cells exposed to 80 μM of 2′(3′)-O-(4-benzoyl-benzoyl)adenosine 5′-triphosphate, Example 4A, read-out: IC50

SMILES: O=C(NCC12CC3CC(CC(C3)C1)C2)c1cccc2nc(C(=O)N3CCC(N4CCOCC4)CC3)cn12 [Compound 101, N-(adamantan-1-ylmethyl)-2-[(4-morpholin-4-ylpiperidin-1-yl)carbonyl]imidazo[1,2-a]pyridine-5-carboxamide]
- IC50 [1]: < 2000 nM

SMILES: CC1(C)[C@H]2CC[C@@H](CNC(=O)c3cccc4nc(C(=O)NC5(CO)CCCC5)cn34)[C@@H]1C2 [Compound 518, 5-N-{[(1S,2R,5S)-6,6-dimethylbicyclo[3.1.1]hept-2-yl]methyl}-2-N-[1-(hydroxymethyl)cyclopentyl] imidazo[1,2-a]pyridine-2,5-dicarboxamide]
- IC50 [2]: < 2000 nM

SMILES: CC(C)N1CCN(C(=O)Cc2cn3c(C(=O)NCC4(c5ccc(C(F)(F)F)cc5)CCCCC4)cccc3n2)CC1 [Compound 885, 2-[2-(4-isopropylpiperazin-1-yl)-2-oxoethyl]-N-({1-[4-(trifluoromethyl)phenyl]cyclohexyl}methyl) imidazo[1,2-a] pyridine-5-carboxamide]
- IC50 [3]: < 2000 nM

SMILES: COCCCN(C(=O)Cc1cn2c(C(=O)NC[C@@H]3CC[C@@H]4C[C@H]3C4(C)C)cccc2n1)C1CCNCC1(C)C (stereo partly drawn) [Compound 572, N-{[(1R,2R,5R)-6,6-dimethylbicyclo[3.1.1]hept-2-yl]methyl}-2-{2-[(3,3-dimethylpiperidin-4-yl)(3-methoxy-propyl)amino]-2-oxoethyl} imidazo[1,2-a] pyridine-5-carboxamide]
- IC50 [2]: < 2000 nM

SMILES: CC(C)C[C@H](NC(=O)c1cn2c(C(=O)NC[C@@H]3CC[C@H]4C[C@@H]3C4(C)C)cccc2n1)C(N)=O [Compound 515, 2-N-[(1S)-1-carbamoyl-3-methylbutyl]-5-N-{[(1S,2R,5S)-6,6-dimethylbicyclo [3.1.1]hept-2-yl]methyl} imidazo[1,2-a]pyridine-2,5-dicarboxamide]
- IC50 [2]: < 2000 nM

SMILES: CCNC(=O)CC1(c2cn3c(C(=O)NCC45CC6CC(CC(C6)C4)C5)cccc3n2)CC(=O)N(CC)C1=O (stereo not shown) [Compound 808, N-(adamantan-1-ylmethyl)-2-{1-ethyl-3-[2-(ethylamino)-2-oxoethyl]-2,5-dioxopyrrolidin-3-yl}imidazo[1,2-a]pyridine-5-carboxamide]
- IC50 [4]: < 2000 nM

SMILES: CN(CCNS(C)(=O)=O)C(=O)Cc1cn2c(C(=O)NCC34CC5CC(CC(C5)C3)C4)cccc2n1 [Compound 45, N-(adamantan-1-ylmethyl)-2-[2-(methyl{2-[(methyl-sulfonyl)amino]eth-yl}amino)-2-oxoethyl]imidazo[1,2-a]pyridine-5-carboxamide]
- IC50 [1]: < 2000 nM

SMILES: N#CCCc1cn2c(C(=O)NCC34CC5CC(CC(C5)C3)C4)cccc2n1 [Compound 274, N-(adamantan-1-ylmethyl)-2-(2-cyanoethyl)imidazo[1,2-a]pyridine-5-carboxamide]
- IC50 (fluorescence response of cells exposed to 80 μM 2′(3′)-O-(4-benzoyl-benzoyl)adenosine 5′-triphosphate, Example 4A, read-out: IC50): < 2000 nM

SMILES: CCC(=O)NC1CCN(C(=O)Cc2cn3c(C(=O)NCC45CC6CC(CC(C6)C4)C5)cccc3n2)CC1 [Compound 183, N-(adamantan-1-ylmethyl)-2-{2-oxo-2-[4-(propionylamino)piperidin-1-yl]ethyl}imidazo[1,2-a]pyridine-5-carboxamide]
- IC50 [1]: < 2000 nM

SMILES: CCC(O)CNC(=O)Cc1cn2c(C(=O)NCC34CC5CC(CC(C5)C3)C4)cccc2n1 (stereo not shown) [Compound 30, N-(adamantan-1-ylmethyl)-2-{2-[(2-hydroxy-butyl)amino]-2-oxoethyl}imi-dazo[1,2-a]pyridine-5-carboxamide]
- IC50: < 2000 nM

SMILES: CCOC(=O)c1cn2c(C(=O)NCC34CC5CC(CC(C5)C3)C4)cccc2n1 [Compound 2, ethyl 5-[(adamantan-1-ylmethyl)carbamoyl]imi-dazo[1,2-a]pyridine-2-carboxylate]
- IC50: < 2000 nM

SMILES: CN(CCC(C)(C)O)C(=O)c1cn2c(NC(=O)CC34CC5CC(CC(C5)C3)C4)cccc2n1 [Compound 431, 5-[(adamantan-1-ylacetyl)amino]-N-(3-hydroxy-3-methylbutyl)-N-methylimidazo[1,2-a]pyridine-2-carboxamide]
- IC50 [2]: < 2000 nM

SMILES: CNCCN(C)Cc1cn2c(C(=O)NCC34CC5CC(CC(C5)C3)C4)cccc2n1 [Compound 124, N-(adamantan-1-ylmethyl)-2-({methyl[2-(methylamino)eth-yl]amino}methyl)imi-dazo[1,2-a]pyridine-5-carboxamide]
- IC50: < 2000 nM

SMILES: CC(C(=O)O)c1cn2c(C(=O)NCC34CC5CC(CC(C5)C3)C4)cccc2n1 (stereo not shown) [Compound 547, 2-{5-[(adamantan-1-ylmethyl)carbamoyl]imidazo[1,2-a]pyridin-2-yl} propanoic acid]
- IC50 [2]: < 2000 nM

SMILES: O=C(NCC1CCCCC1)c1cccc2nc(CCl)cn12 [Compound 142, 2-(chloromethyl)-N-(cyclohexylmethyl)imi-dazo[1,2-a]pyridine-5-carboxamide]
- IC50: < 2000 nM

SMILES: CCOC(=O)C1(c2cn3c(C(=O)NCC45CC6CC(CC(C6)C4)C5)cccc3n2)CCCCC1 [Compound 849, ethyl 1-{5-[(adamantan-1-ylmethyl)carbamoyl]imidazo[1,2-a]pyridin-2-yl} cyclohexane-carboxylate]
- IC50 [3]: < 2000 nM

The next lines start with the values.

- IC50 [1]: < 2000 nM
SMILES: O=C(NCC12CC3CC(CC(C3)C1)C2)c1cccc2nc(CC(=O)N3CCCC3)cn12 [Compound 180, N-(adamantan-1-ylmethyl)-2-(2-oxo-2-pyrrolidin-1-ylethyl)imidazo[1,2-a]pyridine-5-carboxamide]

- IC50 [1]: < 2000 nM
SMILES: CC(O)CCNC(=O)Cc1cn2c(C(=O)NCC34CC5CC(CC(C5)C3)C4)cccc2n1 (stereo not shown) [Compound 31, N-(adamantan-1-ylmethyl)-2-{2-[(3-hydroxybutyl)amino]-2-oxoethyl}imidazo[1,2-a]pyridine-5-carboxamide]

- IC50 [1]: < 2000 nM
SMILES: O=C(NCC(=O)N1CCOCC1)c1cn2c(C(=O)NCC34CC5CC(CC(C5)C3)C4)cccc2n1 [Compound 76, 5-N-(adamantan-1-ylmethyl)--(2-morpholin-4-yl-2-oxoethyl)imidazo[1,2-a]pyridine-2,5-dicarboxamide]

- IC50 [4]: < 2000 nM
SMILES: COCCCN(C(=O)c1cn2c(C(=O)NCC34CC5CC(CC(C5)C3)C4)cccc2n1)C1CCNCC1 [Compound 619, 5-N-(adamantan-1-ylmethyl)-2-N-(3-methoxypropyl)-2-N-piperidin-4-ylimidazo[1,2-a]pyridine-2,5-dicarboxamide]

- IC50 [1]: < 2000 nM
SMILES: COC1CCN(C(=O)c2cn3c(C(=O)NCC45CC6CC(CC(C6)C4)C5)cccc3n2)CC1 [Compound 95, N-(adamantan-1-ylmethyl)-2-[(4-methoxypiperidin-1-yl)carbonyl]imidazo[1,2-a]pyridine-5-carboxamide]

- IC50 [1]: < 2000 nM
SMILES: COCCN1CCN(C(=O)c2cn3c(C(=O)NCC45CC6CC(CC(C6)C4)C5)cccc3n2)CC1 [Compound 94, N-(adamantan-1-ylmethyl)-2-{[4-(2-methoxyethyl)piperazin-1-yl]carbonyl}imidazo[1,2-a]pyridine-5-carboxamide]

- IC50 [4]: < 2000 nM
SMILES: CCN(C)CCN(CC)C(=O)c1cn2c(C(=O)NCC34CC5CC(CC(C5)C3)C4)cccc2n1 [Compound 673, 5-N-(adamantan-1-ylmethyl)-2-N-ethyl-2-N-{2-[ethyl(methyl)amino]ethyl}imidazo[1,2-a]pyridine-2,5-dicarboxamide]

- IC50 (P2X7 calcium mobilization, Example 4A, 50% decrease in the fluorescence response of cells exposed to 80 μM of (2′(3′)-O-(4-benzoyl-benzoyl)adenosine 5′-triphosephate), read-out: IC50): < 2000 nM
SMILES: CN1CCCC(NC(=O)Cc2cn3c(C(=O)NCC45CC6CC(CC(C6)C4)C5)cccc3n2)C1 (stereo not shown) [Compound 1050, N-(adamantan-1-ylmethyl)-2-{2-[(1-methylpiperidin-3-yl)amino]-2-oxoethyl} imidazo[1,2-a]pyridine-5-carboxamide]

- IC50 [1]: < 2000 nM
SMILES: O=C(NCC12CC3CC(CC(C3)C1)C2)c1cccc2nc(CN3CCNCC3)cn12 [Compound 5, N-(adamantan-1-ylmethyl)-2-(piperazin-1-ylmethyl)imidazo[1,2-a]pyridine-5-carboxamide]

- IC50 [4]: < 2000 nM
SMILES: O=C(NCCCN1CCCC1)c1cn2c(C(=O)NCC34CC5CC(CC(C5)C3)C4)cccc2n1 [Compound 645, 5-N-(adamantan-1-ylmethyl)-2-N-(3-pyrrolidin-1-ylpropyl)imidazo[1,2-a]pyridine-2,5-dicarboxamide]

- IC50 [4]: < 2000 nM
SMILES: CCN(CC)CCNC(=O)c1cn2c(C(=O)NCC34CC5CC(CC(C5)C3)C4)cccc2n1 [Compound 651, 5-N-(adamantan-1-ylmethyl)-2-N-[2-(diethylamino)ethyl]imidazo [1,2-a]pyridine-2,5-dicarboxamide]

- IC50 [4]: < 2000 nM
SMILES: O=C(NCc1ccncc1)c1cn2c(C(=O)NCC34CC5CC(CC(C5)C3)C4)cccc2n1 [Compound 661, 5-N-(adamantan-1-ylmethyl)-2-N-(pyridin-4-ylmethyl)imidazo [1,2-a]pyridine-2,5-dicarboxamide]
